According to the supplement of paper PMC10627819:

Tests used:
S. pneumoniae D39V [1] = experiment: Bliss interaction score (quartile over a dose matrix) (fitness difference); higher = more antagonism (negative = synergy)
Outline: (§1)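 The Bliss score is observed minus expected fitness, where expected fitness is the product of the single-drug fitness values inferred from the combination data. Fitness is the OD595 at the onset of stationary phase over the plate's robust no-drug mean, capped at 1. Scores are summarised by quartiles over technical, biological and donor/recipient replicates.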

S. aureus DSM 20231 [2] = experiment: as above
Outline: as §1

B. subtilis 168 [3] = experiment: as above
Outline: as §1

S. aureus Newman [4] = experiment: as above
Outline: as §1

S. pneumoniae D39V [5] = experiment: fitness (endpoint OD595 vs no drug) (fraction); higher = more growth
Outline: (§2)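 Fitness was measured as bacterial growth in 384-well plates inoculated at OD595 0.01 (30 µl, or 55 µl for S. pneumoniae). Media were TSB, LB Lennox or CY, at 37 °C. OD595 was read every 30 min for 14 h and background-subtracted against the first reading. Fitness is OD595 at the transition into stationary phase divided by the robust mean of no-drug control wells, capped at 1.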

B. subtilis 168 [6] = experiment: as above
Outline: as §2

S. aureus Newman [7] = experiment: as above
Outline: as §2

S. aureus DSM 20231 [8] = experiment: as above
Outline: as §2
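Wherever Bliss interaction score (quartile over a dose matrix) is given: first quartile when negative (synergy) and third quartile when positive (antagonism).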
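Wherever fitness (endpoint OD595 vs no drug) is given: OD595 on entry to stationary phase over no-drug wells; at most 1.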

C[C@@H]1O[C@@H]1P(=O)(O)O [Fosfomycin] + CN[C@@H]1[C@H](O[C@H]2[C@H](O[C@H]3[C@H](O)[C@@H](O)[C@H](N=C(N)N)[C@@H](O)[C@@H]3N=C(N)N)O[C@@H](C)[C@]2(O)C=O)O[C@@H](CO)[C@H](O)[C@H]1O [Streptomycin]
Conditions	Bliss interaction score
B. subtilis 168 [3]	-0.187
S. aureus DSM 20231 [2]	-0.14
S. aureus Newman [4]	-0.106
S. pneumoniae D39V [1]	-0.0437

fitness
Conditions	partner 1 µg/mL	partner 2 µg/mL	partner 4 µg/mL	partner 8 µg/mL
B. subtilis 168 [6], first compound 1.562 µg/mL	–	0.664	–	–
B. subtilis 168 [6], first compound 3.124 µg/mL	–	0.399	–	–
S. aureus Newman [7], first compound 0.781 µg/mL	0.599	0.565	–	–
S. aureus Newman [7], first compound 1.562 µg/mL	0.517	0.467	–	–
S. aureus Newman [7], first compound 3.124 µg/mL	0.156	0.131	0.0427	–
S. pneumoniae D39V [5], first compound 1.25 µg/mL	–	0.919	0.921	0.902
S. pneumoniae D39V [5], first compound 2.5 µg/mL	–	0.903	0.9	0.918
S. pneumoniae D39V [5], first compound 5 µg/mL	–	0.715	0.747	0.722

S. pneumoniae D39V [5], partner 16 µg/mL, one replicate
Conditions	fitness
first compound 1.25 µg/mL	0.765
first compound 2.5 µg/mL	0.714
first compound 5 µg/mL	0.436

C[C@@H]1O[C@@H]1P(=O)(O)O [Fosfomycin] + COc1cc(Cc2cnc(N)nc2N)cc(OC)c1OC [Trimethoprim]
Conditions	Bliss interaction score
B. subtilis 168 [3]	-0.112
S. aureus DSM 20231 [2]	0.0599
S. aureus Newman [4]	0.0927
S. pneumoniae D39V [1]	0.158

fitness
Conditions	partner 0.125 µg/mL	partner 0.25 µg/mL	partner 0.5 µg/mL	partner 1 µg/mL
B. subtilis 168 [6], first compound 1.562 µg/mL	0.572	0.405	0.35	–
B. subtilis 168 [6], first compound 3.124 µg/mL	0.447	0.369	0.218	–
B. subtilis 168 [6], first compound 6.248 µg/mL	0.307	0.236	0.0904	–
S. aureus DSM 20231 [8], first compound 0.781 µg/mL	0.592	0.56	0.182	0.0323
S. aureus DSM 20231 [8], first compound 1.562 µg/mL	0.56	0.484	0.106	0.0286
S. aureus DSM 20231 [8], first compound 3.124 µg/mL	0.499	0.327	0.0645	0.0282

fitness, B. subtilis 168 [6], one replicate
Conditions	partner 0.1 µg/mL	partner 0.2 µg/mL	partner 0.4 µg/mL	partner 1 µg/mL	partner 2 µg/mL
first compound 1.562 µg/mL	0.649	0.564	0.397	0.17	0.119
first compound 3.124 µg/mL	0.497	0.35	0.18	0.0628	0.0617
first compound 6.248 µg/mL	0.209	0.101	0.0381	0.0277	0.0228
